Experimental data reported in US20030165579A1, “Euphorbia antiquorum extract, a pharmaceutical composition containing the same and methods for treatment of cancers” (priority 2002, published 2003).

Legend:
[1] = test system: Ehrlich acites tumor cell; details: Planta Med. 62, 322-5, 1996; cited from earlier work
hepatoma = details: cited from earlier work
[2] = test system: P-388 lymphocytic leukemia; details: mice; cited from earlier work
MOLT 4 = assay: Cell proliferation assay (MTS) on MOLT 4; assay type: cell-based, Human; details: for Cell Growth: positive control
Protocol: (§1) The ability of extract of Euphorbia antiquorum described in Example 1 to inhibit the growth of five different human tumor cell lines was tested. The activity of Doxorubicin, a currently clinically used chemotherapeutic agent, against the tumor cell lines was tested as a control.
(§2) Five human tumor cell lines COLO 205, HT-29, U-937, MOLT4 and HA22T/VGH, were tested in this example (Table 3).
(§3) All five cancer cell lines were stored in liquid nitrogen. After thawing, cells were maintained as monolayer in appropriate medium (GIBCO, USA) supplemented with 10% fetal bovine serum, sodium bicarbonate, L-glutamine (2 mM), streptomycin (100 μg/ml) and penicillin-G (100 units/ml) in a humidified incubator at 37±1° C. and 5% CO2 in air.
(§4) Exponentially growing human cancer cells were seeded in an appropriate medium in 96-well ELISA microtiter plates. The number of cells for each cell line plated in 96-well plates was determined from the growth curve obtained in MTS assay (600 to 20,000 cells depending on cell line). These plates of adherent cells were incubated overnight. Six well cultures were used for each concentration of MH801 of the invention and for negative and positive control cultures.
(§5) MH801 was dissolved in culture medium. […] Since the solution prepared in culture medium at working concentration can be used directly rather than a stock solution at 200 fold concentration in DMSO, culture medium, instead of DMSO, was used as vehicle in the present invention. Maximum concentration for this assay was 10 mg/ml. Serial ten fold dilution was used in this invention, and therefore, the concentrations were 10, 1, 0.1, 0.01 and 0.001 mg/ml. After sufficient mixing, this solution was passed through filter of 0.2 μm pore size for sterility. Filtrate was serially diluted with culture medium to desired concentrations for treatment.
(§6) After three days of culture, the viable cells were counted by changing the culture medium containing a tetrazolium compound
(§7) (3-4,5-dimethylthiazol-2-yl)-5(3-carboxymethoxyphenyl)-2-(4-sulfophenyl)-2H-tetrazolium, inner salt and an electron coupling reagent to measure mitochondrial enzyme activity. The absorbance at […] was measured after 2 hours to 4 hours reaction time. Cell growth % is calculated using the following equations: [formula]
(§8) Doxourbicin was used as positive control for assay system evaluation and was prepared in dimethyl sulfoxide (Merck Art. 2931, Germany) as stock solution to be added to culture medium.

COLO 205 = assay: Cell proliferation assay (MTS) on COLO 205; assay type: cell-based, Human; details: for Cell Growth: positive control
Protocol: as §1, §2, §3, §4, §5, §6, §7, §8

HA22T/VGH = assay: Cell proliferation assay (MTS) on HA22T/VGH; assay type: cell-based, Human; details: positive control
Protocol: as §1, §2, §3, §4, §5, §6, §7, §8

U-937 = assay: Cell proliferation assay (MTS) on U-937; assay type: cell-based, Human; details: for Cell Growth: positive control
Protocol: as §1, §2, §3, §4, §5, §6, §7, §8

HT-29 = assay: Cell proliferation assay (MTS) on HT-29; assay type: cell-based, Human; details: for Cell Growth: positive control
Protocol: as §1, §2, §3, §4
as §5, with “After sufficient mixing, this solution was passed through filter of 0.2 μm pore size for sterility. Filtrate was serially diluted with culture medium to desired concentrations for treatment.” left out
as §6
as §7, with “[formula] […]” for “[formula]”

tumors = details: chemotherapy, tumor control; cited from earlier work

## 9,19-cycloart-23-ene-3 β,24-diol
[1]
  inhibitory activity against Ehrlich acites tumor cell: significant inhibitory activity

## O=c1[nH]cc(F)c(=O)[nH]1 [5-FU]
hepatoma; 62 hepatoma patients, hepatic intra-arterial infusion
  patients responded to the medicine: 48%
hepatoma; hepatoma patients who did not respond
  survival, non-responders: 1.8 months
hepatoma; hepatoma patients who responded
  survival in average, responders: 6.9 months

## CCCCCCCCCCCCCCCC(=O)OC[C@@]12O[C@@H]1[C@@H]1C(=O)[C@]3(C=C(C)[C@H](OC(=O)C(C)C(C)C)[C@@]3(O)[C@@H]2O)[C@H](C)C[C@]2(OC(=O)CCCCCCCCCCC)[C@H]1C2(C)C (stereo partly shown) [6,7-epoxy-13-hydroxyingenol-3-(2,3-dimethylbutanoate)-13 dodecanoate-20-hexadecanoate]
[2]
  antileukemic activity against P-388 lymphocytic leukemia: antileukemic effect

## CCCCCCCCCCCCCCCC(=O)OCC1=C[C@@H]2C(=O)[C@]3(C=C(C)[C@H](OC(=O)C(C)C(C)C)[C@@]3(O)[C@@H]1O)[C@H](C)C[C@]1(OC(=O)CCCCCCCCCCC)[C@H]2C1(C)C (stereo partly shown) [13-hydroxyingenol-3-(2,3-dimethylbutanoate)-13-dodecanoate-20-hexadecanoate]
[2]
  antileukemic activity against P-388 lymphocytic leukemia: antileukemic effect

## COc1cccc2c1C(=O)c1c(O)c3c(c(O)c1C2=O)C[C@@](O)(C(=O)CO)C[C@@H]3O[C@H]1C[C@H](N)[C@H](O)[C@H](C)O1 [Doxorubicin]
MOLT 4; MOLT 4, 0.0058 μg/ml
  Cell Growth: 71.2%
MOLT 4; MOLT 4, 0.058 μg/ml
  Cell Growth: 0%
MOLT 4; MOLT 4, 0.58 μg/ml
  Cell Growth: 0%
MOLT 4; MOLT 4, 5.8 μg/ml
  Cell Growth: 0%
MOLT 4; MOLT 4, positive control
  antiproliferative effect: very strong antiproliferative effect
COLO 205; COLO 205, 0.058 μg/ml
  Cell Growth: 63.2%
COLO 205; COLO 205, 0.58 μg/ml
  Cell Growth: 33.8%
COLO 205; COLO 205, 5.8 μg/ml
  Cell Growth: 8.23%
COLO 205; COLO 205, positive control
  antiproliferative effect: very strong antiproliferative effect
HA22T/VGH; 0.0058 μg/ml
  Cell Growth: 103%
HA22T/VGH; 0.058 μg/ml
  Cell Growth: 81.53%
HA22T/VGH; 0.58 μg/ml
  Cell Growth: 38.8%
HA22T/VGH; 5.8 μg/ml
  Cell Growth: 14.4%
HA22T/VGH
  antiproliferative effect: very strong antiproliferative effect
U-937; U-937, 0.0058 μg/ml
  Cell Growth: 100.5%
U-937; U-937, 0.058 μg/ml
  Cell Growth: 80.9%
U-937; U-937, 0.58 μg/ml
  Cell Growth: 3.7%
U-937; U-937, 5.8 μg/ml
  Cell Growth: 1.6%
U-937; U-937, positive control
  antiproliferative effect: very strong antiproliferative effect
HT-29; HT-29, 1.74 μg/ml
  Cell Growth: 35%
HT-29; HT-29, 3.48 μg/ml
  Cell Growth: 15.9%
HT-29; HT-29, positive control
  antiproliferative effect: very strong antiproliferative effect
tumors
  remission effect: 15-23%

## CC1=C[C@]23C(=O)[C@@H](C=C(COC(=O)c4ccccc4)[C@@H](O)[C@]2(O)[C@H]1OC(=O)c1ccccc1)[C@H]1[C@@H](C[C@H]3C)C1(C)C [Ingenol 3,20-debenzoate]
[2]
  antileukemic activity against P-388 lymphocytic leukemia: antileukemic activity

## C/C=C(\C)C(=O)O[C@@H]1[C@@H](C)[C@@]2(O)[C@@H](C=C(CO)C[C@]3(O)C(=O)C(C)=C[C@@H]23)[C@@H]2C(C)(C)[C@]12OC(=O)CCCCCCCCC [phorbol 12-tiglate 13-decanoate]
[2]
  antileukemic activity against P-388 lymphocytic leukemia: antileukemic activity
